Results taken from patent US6222035A, “[1,2,4] triazolo [1,5-C] pyrimidine derivatives” (Kyowa Hakko Kogyo Co., Ltd., priority 1997, dated 2001).

Test system: CGS 21680-induced catalepsy in mice
Experiment: Activity on CGS 21680-induced Catalepsy
Assay type: in vivo, mouse (male ddY)
Conditions: 10 mg/kg oral; for Total score (catalepsy): 10 animals, maximum 50 points, control 48; for Number of Animals showing remission: catalepsy score 4 points or less in 10 cases; for inhibition in vivo at 10 mg/kg: Mus musculus, CGS 21680-induced catalepsy, read-out: Remission ratio (%)
Method: Activity on CGS 21680-induced Catalepsy
Parkinson's disease is motor deficit based on the degeneration and cell death of the nigrostriatal dopaminergic neuron. […] [Journal of Neuroscience, 16: 605 (1996)]. Accordingly, it is considered that adenosine A2A receptor agonists positively regulate the output of the striopallidal GABAergic neurons and, as a result, catalepsy is induced by the administration of CGS 21680.
This test was carried out using 10 animals per group of male ddY mice of 5 week age (22 to 25 g in body weight, Japan SLC). CGS 21680 (manufactured by RBI) was dissolved in a physiological saline (manufactured by Otsuka Pharmaceutical), and 10 μg/20 μl of the solution was injected into mouse intracerebro-ventricle. Test compounds were used by suspending them in distilled water containing 0.3% of polyoxyethylene(20)sorbitan monooleate (hereinafter referred to as "Tween 80") (manufactured by Otsuka Pharmaceutical). […] One hour after the administration of the test compound, only forelimbs or only hindlimbs of each animal were laid on a vertically arranged stand made of acryl, having a size of 4.5 cm in height and 1.0 cm in width, to measure catalepsy symptoms. All of the compounds were administered orally in a dose of 10 mg/kg.
The effect was judged by total catalepsy scores of 10 animals in one group (the maximum is 50 points). When the total score was 40 points or less, the activity of drugs was judged positive. The number of animals showing remission of catalepsy was expressed by the number of cases in which the catalepsy score was 4 points or less in 10 cases. The catalepsy remission ratio was expressed as the percentage of the total score in the test compound-administered group to the total score in the control group.

SMILES | Total score (catalepsy) | Number of Animals showing remission | inhibition in vivo at 10 mg/kg [%]
CCC(C)N1CCN(c2cc3nc(-c4ccco4)nn3c(N)n2)CC1 (racemic) [Compound 140, (±)-5-Amino-2-(2-furyl)-7-(4-(1-methylpropyl)piperazinyl)[1,2,4]triazolo[1,5-c]pyrimidine] | 13 | 10 | 74
CCN1CCN(c2cc3nc(-c4ccco4)nn3c(N)n2)CC1 [Compound 60, 5-Amino-7-(4-ethylpiperazinyl)-2-(2-furyl)[1,2,4]triazolo[1,5-c]pyrimidine] | 10 | 8 | 76
Nc1nc(N2CCN(CCO)CC2)cc2nc(-c3ccco3)nn12 [Compound 62, 5-Amino-2-(2-furyl)-7-[4-(2-hydroxyethyl)piperazinyl][1,2,4]triazolo[1,5-c]pyrimidine] | 4 | 10 | 88
Nc1nc(N2CCN(c3ncccn3)CC2)cc2nc(-c3ccco3)nn12 [Compound 64, 5-Amino-2-(2-furyl)-7-[4-(2-pyrimidyl)piperazinyl][1,2,4]triazolo[1,5-c]pyrimidine] | 5 | 10 | 88
COCCN1CCN(c2cc3nc(-c4ccco4)nn3c(N)n2)CC1 [Compound 74, 5-Amino-7-[4-(2-methoxyethyl)piperazinyl]-2-(2-furyl)[1,2,4]triazolo[1,5-c]pyrimidine] | 0 | 10 | 98
Nc1nc(N2CCN(c3nc4ccccc4s3)CC2)cc2nc(-c3ccco3)nn12 [Compound 95, 5-Amino-7-(4-(2-benzothiazolyl)piperazinyl)-2-(2-furyl)[1,2,4]triazolo[1,5-c]pyrimidine] | 16 | 8 | 66
COCCOCCN1CCN(c2cc3nc(-c4ccco4)nn3c(N)n2)CC1 [Compound 104, 5-Amino-2-(2-furyl)-7-(4-(2-(2-methoxyethoxy)ethyl)piperazinyl)[1,2,4]triazolo[1,5-c]pyrimidine] | 4 | 10 | 92
C=CCCN1CCN(c2cc3nc(-c4ccco4)nn3c(N)n2)CC1 [Compound 125, 5-Amino-2-(2-furyl)-7-(4-homoallylpiperazinyl)[1,2,4]triazolo[1,5-c]pyrimidine] | 13 | 10 | 74
Nc1nc(N2CCN(CCCCF)CC2)cc2nc(-c3ccco3)nn12 [Compound 128, 5-Amino-7-(4-(4-fluorobutyl)piperazinyl)-2-(2-furyl)[1,2,4]triazolo[1,5-c]pyrimidine] | 9 | 10 | 80
CC(C)CN1CCN(c2cc3nc(-c4ccco4)nn3c(N)n2)CC1 [Compound 136, 5-Amino-2-(2-furyl)-7-(4-(2-methylpropyl)piperazinyl)[1,2,4]triazolo[1,5-c]pyrimidine] | 1 | 10 | 98
CC(C)N1CCN(c2cc3nc(-c4ccco4)nn3c(N)n2)CC1 [Compound 139, 5-Amino-2-(2-furyl)-7-(4-isopropylpiperazinyl)[1,2,4]triazolo[1,5-c]pyrimidine] | 10 | 9 | 80
Nc1nc(N2CCN(Cc3csnn3)CC2)cc2nc(-c3ccco3)nn12 [Compound 143, 5-Amino-2-(2-furyl)-7-(4-(1,2,3-thiadiazol-4-ylmethyl)piperazinyl)-2-(2-furyl)[1,2,4]triazolo[1,5-c]pyrimidine] | 0 | 10 | 98
Cc1ncc(CN2CCN(c3cc4nc(-c5ccco5)nn4c(N)n3)CC2)s1 [Compound 145, 5-Amino-2-(2-furyl)-7-(4-(2-methylthiazol-5-ylmethyl)piperazinyl)[1,2,4]triazolo[1,5-c]pyrimidine] | 3 | 10 | 92
Nc1nc(N2CCN(Cc3ccsc3)CC2)cc2nc(-c3ccco3)nn12 [Compound 146] | 3 | 10 | 94
Nc1ncc(C=O)c2nc(-c3ccco3)nn12 [Compound 163, 5-Amino-8-formyl-2-(2-furyl)[1,2,4]triazolo[1,5-c]pyrimidine] | 3 | 10 | 94
Nc1ncc(C(=O)N2CCCCC2)c2nc(-c3ccco3)nn12 [Compound 175] | 12 | 10 | 74
Nc1ncc(C(=O)N2CCOCC2)c2nc(-c3ccco3)nn12 [Compound 177] | 13 | 9 | 72
Nc1nc(SCc2ccncc2)cc2nc(-c3ccco3)nn12 [Compound 181, 5-Amino-2-(2-furyl)-7-(4-picolylthio)[1,2,4]triazolo[1,5-c]pyrimidine] | 14 | 8 | 72
COC(=O)c1ccc(CSc2cc3nc(-c4ccco4)nn3c(N)n2)cc1 [Compound 190, 5-Amino-2-(2-furyl)-7-(4-methoxycarbonylbenzylthio)[1,2,4]triazolo[1,5-c]pyrimidine] | 13 | 10 | 72
Nc1nc(SCc2ccccc2Cl)cc2nc(-c3ccco3)nn12 [Compound 200, 5-Amino-7-(2-chlorobenzylthio)-2-(2-furyl)[1,2,4]triazolo[1,5-c]pyrimidine] | 14 | 9 | 70
Nc1nc(SCc2ccccc2F)cc2nc(-c3ccco3)nn12 [Compound 201, 5-Amino-7-(2-fluorobenzylthio)-2-(2-furyl)[1,2,4]triazolo[1,5-c]pyrimidine] | 10 | 10 | 78
Nc1nc(SCc2ccccc2C=O)cc2nc(-c3ccco3)nn12 [Compound 213, 5-Amino-7-(2-formylbenzylthio)-2-(2-furyl)[1,2,4]triazolo[1,5-c]pyrimidine] | 15 | 10 | 70
Cc1c(N2CCN(CCO)CC2)nc(N)n2nc(-c3ccco3)nc12 [Compound 222, 5-Amino-2-(2-furyl)-7-(4-(2-hydroxyethyl)piperazinyl)-8-methyl[1,2,4]triazolo[1,5-c]pyrimidine] | 9 | 10 | 80
COCCN1CCN(c2nc(N)n3nc(-c4ccco4)nc3c2C)CC1 [Compound 223, 5-Amino-2-(2-furyl)-7-(4-(2-methoxyethyl)piperazinyl)-8-methyl[1,2,4]triazolo[1,5-c]pyrimidine] | 15 | 9 | 68
Nc1nc(Oc2ccc(Br)cc2)cc2nc(-c3ccco3)nn12 [Compound 228] | 14 | 8 | 72
